Data as given in PMC12439480, “Dimeric CCK2R radiotheranostic tracers synergize with mTOR inhibition for enhanced tumor therapy” (Theranostics, 2025).
Numbered stars: 1 amine (or outer) side, 2 acyl side, 3 side chain; on linkers, the order of the positions; unused ones are H or OH. Square brackets hold non-standard residues; d marks the D form. Side chains are listed from the residue outwards. Peptide text beside a SMILES is read from it. * marks the point of attachment. DOTA = O=C(O)CN1CCN(CC(=O)O)CCN(CC(=O)*)CCN(CC(=O)O)CC1; d(γGlu) = O=C(O)[C@@H](CCC(=O)[*:2])N[*:1]; 1Nal = N[C@@H](Cc1cccc2ccccc12)C(=O)O; NMeNle = CCCC[C@H](NC)C(=O)O; PEG4 = NCCOCCOCCOCCOCCC(=O)O

Key:
[1] = design: species or system KM mice; conditions: mouse, in vivo, iv
Description: To evaluate the clearance rates of [^68Ga]Ga-DOTA-CCK2R-dimer and [^68Ga]Ga-DOTA-CCK-66 from the blood, a pharmacokinetic study was conducted in male KM mice (4-6 weeks old, 18-20 g, n = 5/group). Each mouse received 3.7 MBq of radiotracer via tail vein injection, corresponding to approximately 120 pmol of [^68Ga]Ga-DOTA-CCK2R-dimer or 210 pmol of [^68Ga]Ga-DOTA-CCK-66. Blood samples were collected from the tail vein into preweighed capillary tubes at 1, 3, 5, 10, 15, 30, 60, 90, 120, and 150 min post-injection. The radioactivity of the blood samples was measured using a γ-counter, and the percent of injected dose per gram of tissue (%ID/g) was calculated. Additionally, we assessed the in vivo stability of [^177Lu]Lu-DOTA-CCK2R-dimer. Mice were intravenously injected with 7.4 MBq (≈ 240 pmol) of [^177Lu]Lu-DOTA-CCK2R-dimer (dissolved in 200 μL of saline; n = 3/group). Urine samples were collected at 1, 4, and 24 hours post-injection, then diluted, filtered through a 0.22 μm membrane, and analyzed by radio-HPLC.
All animal studies were approved by the Ethics Committee of Fudan University […]
Shanghai Cancer Center (No. FUSCC-IACUC- S2023- 0003). […]
Pharmacokinetics in Normal Mice
F or the pharmacokinetics study, […] male KM mice (4 - 6 weeks old, weighing 18 - 20 g) were administered either [68Ga]Ga-D O TA -CCK2R-dimer or [68Ga]Ga-D O TA -CCK- 66 (3.7 MBq per mouse, n = 5/group) via tail vein injection.
Blood samples were collected from the tail vein using pre-weighed capillary tubes at […]
Radioactivity levels were measured using a gamma counter, with decay correction applied based on the injection time. The percentage of injected dose per gram of tissue (%ID/g) was calculated for each time point. […]

[2] = in vivo; design: species or system BALB/c nude mice; conditions: female, BALB/c nude, mouse, iv, total radioactivity
Description: For the micro-positron emission tomography/computed tomography (microPET/CT) imaging study, BALB/c nude mice bearing AR42J tumors (detailed in Supplementary Methods Section S3: Mouse Models) were intravenously injected with 3.7 MBq of [^68Ga]Ga-DOTA-CCK2R-dimer (≈ 120 pmol) or [^68Ga]Ga-DOTA-CCK-66 (≈ 210 pmol) (dissolved in 200 μL of saline; n = 3/group), and microPET/CT imaging was performed at 30, 60, and 120 min post-injection. The mice were anesthetized via inhalation of an isoflurane mixture approximately 5 min before each PET/CT acquisition began. To confirm tumor-specific radiopharmaceutical uptake, blocking experiments were conducted at the 1-h time point of imaging by coinjecting the mice with the radiopharmaceutical and a 400-fold excess of the lead compound.
All animal studies were approved by the Ethics Committee of Fudan University
Shanghai Cancer Center (No. FUSCC-IACUC- S2023- 0003). Five-week-old female
BALB/c nude mice were purchased from Shanghai SLAC Laboratory Animal
Company. To establish cell-derived xenograft (CDX) models, 1 × 10⁶ AR42J cells
(100 μL) were subcutaneously inoculated into the right shoulder of each mouse. […]

[3] = format: physicochemical; conditions: pH 7.4
Description: The hydrophilicity of [^68Ga]Ga-DOTA-CCK2R-dimer and [^68Ga]Ga-DOTA-CCK-66 was assessed by determining their partition coefficients (Log D7.4) in a phosphate-buffered saline (PBS; pH 7.4)/n-octanol (1:1, v/v) system. Briefly, ~37 kBq of each radiotracer was mixed with 2 mL of the biphasic system, vortexed for 5 min, and centrifuged at 15,000 × g for 5 min. The radioactivity in 100 μL aliquots of each phase was quantified using a γ-counter (n = 5).

SMILES	half-life [1] [min]	tissue uptake at 0.5 h ([2]; 3.7 MBq) [%ID/g]	tissue uptake at 1 h ([2]; 3.7 MBq) [%ID/g]	tissue uptake at 2 h ([2]; 3.7 MBq) [%ID/g]	tissue uptake at 1 h [2] [%ID/g]	logD [3]	t1/2α [1] [min]
CCCC[C@@H](C(=O)N[C@@H](CC(=O)O)C(=O)N[C@@H](Cc1cccc2ccccc12)C(N)=O)N(C)C(=O)[C@H](Cc1c[nH]c2ccccc12)NC(=O)CCOCCOCCOCCOCCNC(=O)CC[C@@H](NC(=O)CC[C@H](NC(=O)CN1CCN(CC(=O)O)CCN(CC(=O)O)CCN(CC(=O)O)CC1)C(=O)N[C@H](CCC(=O)NCCOCCOCCOCCOCCC(=O)N[C@@H](Cc1c[nH]c2ccccc12)C(=O)N(C)[C@@H](CCCC)C(=O)N[C@@H](CC(=O)O)C(=O)N[C@@H](Cc1cccc2ccccc12)C(N)=O)C(=O)O)C(=O)O [[68Ga]Ga-DOTA-CCK2R-dimer, metal not drawn] ({DOTA}-E([d(γGlu)-PEG4-Trp-NMeNle-Asp-1Nal-NH2])[d(γGlu)][PEG4]W[NMeNle]D[1Nal]-NH2)	46.6	22.6 ± 0.32	23.9 ± 2.12	26.1 ± 6.21	10.9 ± 1.73	-3.01 ± 0.05	
CCCC[C@@H](C(=O)N[C@@H](CC(=O)O)C(=O)N[C@@H](Cc1cccc2ccccc12)C(N)=O)N(C)C(=O)[C@H](Cc1c[nH]c2ccccc12)NC(=O)CCOCCOCCOCCOCCNC(=O)CC[C@@H](NC(=O)CN1CCN(CC(=O)O)CCN(CC(=O)O)CCN(CC(=O)O)CC1)C(=O)O [[68Ga]Ga-DOTA-CCK-66, metal not drawn, reference compound] ({DOTA-d(γGlu)-PEG4}-W[NMeNle]D[1Nal]-NH2)	11.8	16 ± 2.18	19.5 ± 2.95	19.6 ± 3.35	7.9 ± 1.35	-3.03 ± 0.03	0.67
